Assay results as given in ChEMBL document CHEMBL1146527, “The guineamides, novel cyclic depsipeptides from a Papua New Guinea collection of the marine cyanobacterium Lyngbya majuscula” (J Nat Prod, 2003).
Calls of active or inactive are those of the source. The calls are words filed in the database; no cut-off is given here.

What was measured:
[1] = test system: N2a; test: Cytotoxicity against mouse Neuro2a cells at 10 ug/mL; assay type: functional, cell-based
[2] = Cytotoxicity against mouse Neuro2a cells; assay type: functional, cell-based; conditions: N2a

CC[C@H]1NC(=O)c2csc(n2)[C@H](C)NC(=O)[C@H](Cc2ccccc2)N(C)C(=O)[C@H](C(C)C)N(C)C(=O)[C@H](C)OC(=O)[C@H]1C
Activity [1]: inactive

CC1NC(=O)c2csc(n2)[C@H](C)NC(=O)[C@H](Cc2ccccc2)N(C)C(=O)[C@H](C(C)C)N(C)C(=O)[C@H](C(C)C)OC(=O)C1C (stereo partly drawn) [GUINEAMIDE B]
IC50 [2]: 15 µM

C#CCCCC1NC(=O)[C@H](C)N(C)C(=O)[C@H](C(C)C)NC(=O)[C@H](Cc2ccc(OC)cc2)N(C)C(=O)C(C(C)CC)OC(=O)C1C (stereo partly drawn) [GUINEAMIDE C]
IC50 [2]: 16 µM
